In patent US12415794B2 (Edgewise Therapeutics, Inc., priority 2018, dated 2025) one finds IC50 data, which are given here for 34 molecules.

Assay [1] concerns the target skeletal myofibrils (myosin ATPase). The experiment in a line: Skeletal Myofibril ATPase Assay. It counts as biochemical. Put shortly: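 Rates of NADH loss (A340, kinetic read over 45 min) report ADP generation by myofibrillar myosin, coupled through pyruvate kinase and lactate dehydrogenase; pCa buffer at pH 7.0. IC50 fitted by 4-parameter logistic after normalizing to 1% DMSO controls; cardiac myofibrils served for selectivity.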

Assay [2] concerns the target T1, cardiac myofibrils (myosin ATPase).
T1 construct: frozen myofibril pellets obtained from cardiac tissue; from tissue
The experiment in a line: Cardiac Myofibril ATPase Assay (counter screen). It counts as biochemical. The note with it: myofibrils 1.0 mg/mL, KCl omitted. Put shortly: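 Myosin ATPase rate followed via NADH disappearance at 340 nm, coupled through pyruvate kinase and lactate dehydrogenase, using cardiac myofibril pellets (final 1.0 mg/mL) without KCl. IC50 values reflect rate reduction compared with vehicle-treated wells.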

Some results are limits rather than exact numbers.

T1 sequence (P12883 whole entry): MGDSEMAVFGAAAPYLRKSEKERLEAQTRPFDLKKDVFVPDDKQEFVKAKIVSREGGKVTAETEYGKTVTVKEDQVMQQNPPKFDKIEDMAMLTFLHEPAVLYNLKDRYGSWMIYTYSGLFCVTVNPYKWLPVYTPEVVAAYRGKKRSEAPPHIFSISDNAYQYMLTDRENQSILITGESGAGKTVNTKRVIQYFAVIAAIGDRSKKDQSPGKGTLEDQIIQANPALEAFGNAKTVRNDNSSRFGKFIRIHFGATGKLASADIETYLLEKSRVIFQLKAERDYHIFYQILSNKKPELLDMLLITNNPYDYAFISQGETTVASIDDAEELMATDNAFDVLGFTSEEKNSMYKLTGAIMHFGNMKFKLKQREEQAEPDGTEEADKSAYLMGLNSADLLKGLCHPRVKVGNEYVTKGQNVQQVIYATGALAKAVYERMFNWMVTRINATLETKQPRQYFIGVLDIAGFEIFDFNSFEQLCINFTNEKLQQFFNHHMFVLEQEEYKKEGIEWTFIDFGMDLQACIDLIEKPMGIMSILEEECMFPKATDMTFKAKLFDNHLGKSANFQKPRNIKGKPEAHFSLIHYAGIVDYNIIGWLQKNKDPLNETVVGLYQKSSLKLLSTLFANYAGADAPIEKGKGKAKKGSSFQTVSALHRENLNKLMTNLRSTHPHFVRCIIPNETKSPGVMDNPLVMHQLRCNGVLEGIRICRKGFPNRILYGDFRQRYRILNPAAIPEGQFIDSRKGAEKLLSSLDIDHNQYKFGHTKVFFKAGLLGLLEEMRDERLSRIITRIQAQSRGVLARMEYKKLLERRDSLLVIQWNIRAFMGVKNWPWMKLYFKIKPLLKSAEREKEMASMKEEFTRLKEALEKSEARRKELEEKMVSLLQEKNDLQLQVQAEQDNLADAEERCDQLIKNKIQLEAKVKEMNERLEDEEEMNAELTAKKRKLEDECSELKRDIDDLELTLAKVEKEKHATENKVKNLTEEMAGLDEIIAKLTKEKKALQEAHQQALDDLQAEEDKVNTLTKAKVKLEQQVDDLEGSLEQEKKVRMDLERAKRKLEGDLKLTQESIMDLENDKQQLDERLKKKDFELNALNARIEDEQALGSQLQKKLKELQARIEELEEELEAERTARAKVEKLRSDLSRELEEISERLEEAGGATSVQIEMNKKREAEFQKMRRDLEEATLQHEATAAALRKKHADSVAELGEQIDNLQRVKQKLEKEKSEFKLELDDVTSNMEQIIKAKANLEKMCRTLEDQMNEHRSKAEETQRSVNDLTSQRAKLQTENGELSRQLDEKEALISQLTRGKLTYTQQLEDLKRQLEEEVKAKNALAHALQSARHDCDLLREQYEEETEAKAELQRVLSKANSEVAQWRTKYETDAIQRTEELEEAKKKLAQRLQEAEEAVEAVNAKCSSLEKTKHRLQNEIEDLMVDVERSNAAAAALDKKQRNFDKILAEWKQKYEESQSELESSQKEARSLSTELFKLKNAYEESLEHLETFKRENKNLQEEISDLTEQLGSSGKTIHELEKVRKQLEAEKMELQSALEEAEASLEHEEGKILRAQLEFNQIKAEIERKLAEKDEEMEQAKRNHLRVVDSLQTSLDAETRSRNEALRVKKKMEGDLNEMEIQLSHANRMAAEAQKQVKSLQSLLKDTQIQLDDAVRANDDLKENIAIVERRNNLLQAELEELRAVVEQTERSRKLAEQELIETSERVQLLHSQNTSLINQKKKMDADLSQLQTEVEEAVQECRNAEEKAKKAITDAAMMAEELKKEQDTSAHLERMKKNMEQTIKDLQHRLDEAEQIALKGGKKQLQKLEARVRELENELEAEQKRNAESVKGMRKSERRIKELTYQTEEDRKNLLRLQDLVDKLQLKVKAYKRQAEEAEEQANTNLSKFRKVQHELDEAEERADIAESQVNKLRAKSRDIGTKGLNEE
T1 sequence (P08590 whole entry partner): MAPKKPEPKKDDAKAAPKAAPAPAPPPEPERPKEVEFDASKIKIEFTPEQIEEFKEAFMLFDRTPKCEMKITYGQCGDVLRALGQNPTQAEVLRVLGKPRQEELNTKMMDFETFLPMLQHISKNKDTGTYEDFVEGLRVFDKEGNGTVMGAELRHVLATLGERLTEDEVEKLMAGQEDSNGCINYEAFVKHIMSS
T1 sequence (P10916 whole entry partner): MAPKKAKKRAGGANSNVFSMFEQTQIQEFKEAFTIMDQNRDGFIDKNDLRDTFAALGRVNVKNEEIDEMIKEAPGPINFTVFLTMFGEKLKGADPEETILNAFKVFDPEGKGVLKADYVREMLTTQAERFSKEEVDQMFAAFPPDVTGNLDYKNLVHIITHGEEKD

The term IC50 denotes the midpoint of a concentration-inhibition curve. High values mean weaker potency in that assay, low ones greater potency in that assay. In the case of `O=C(Cn1nc(-c2ccccc2)ccc1=O)Nc1ccc(Cl)cc1Cl` [IIIc-54, N-(2,4-dichlorophenyl)-2-(6-oxo-3-phenylpyridazin-1(6H)-yl)acetamide], the results for the IC50 in assay [1] (Table 4C) and in assay [2] (Table 5C) were 10 to 100 µM and over 100 µM, respectively.

As for `CCNC(=O)Cn1nc(-c2ccc(OC(F)(F)F)cc2)ccc1=O` [II-5, N-ethyl-2-(6-oxo-3-(4-(trifluoromethoxy)phenyl)pyridazin-1(6H)-yl)acetamide], the IC50 in assay [1] (Table 4B) is under 10 µM; in assay [2] (Table 5B), over 100 µM.

In the case of `COc1ccc(-c2ccc(=O)n(CC(=O)NCc3ccc(Cl)cc3)n2)cc1` [IIIb-31, N-(4-chlorobenzyl)-2-(3-(4-methoxyphenyl)-6-oxopyridazin-1(6H)-yl)acetamide], the figures for the IC50 in assay [1] (Table 4C) and in assay [2] (Table 5C) were 10 to 100 µM and over 100 µM, respectively.

As to `O=C(Cn1nc(-c2ccc(OC(F)F)nc2)ccc1=O)NC12CC(C1)C2` [Compound I-11, N-(bicyclo[1.1.1]pentan-1-yl)-2-(3-(6-(difluoromethoxy)pyridin-3-yl)-6-oxopyridazin-1(6H)-yl)acetamide], the values for the IC50 in assay [1] (Table 4A) and in assay [2] (Table 5A) were 10 to 100 µM and over 100 µM, respectively.

With `COc1ccc(-c2ccc(=O)n(CC(=O)NCc3cnoc3)n2)cc1` [IIIa-31, N-(isoxazol-4-ylmethyl)-2-(3-(4-methoxyphenyl)-6-oxopyridazin-1(6H)-yl)acetamide], the IC50 in assay [1] (Table 4C) and in assay [2] (Table 5C) was over 100 µM in each case.

Regarding `COc1ccc(Cl)cc1NC(=O)Cn1nc(-c2ccccc2)ccc1=O` [IIIc-62, N-(5-chloro-2-methoxyphenyl)-2-(6-oxo-3-phenylpyridazin-1(6H)-yl)acetamide], the concentration for half-maximal inhibition (IC50) in assay [1] (Table 4C) and in assay [2] (Table 5C) was over 100 µM each time.

`O=C(Cn1nc(-c2ccc3c(c2)OCCO3)ccc1=O)Nc1ccccc1F` [IIIb-6, 2-(3-(2,3-dihydrobenzo[b][1,4]dioxin-6-yl)-6-oxopyridazin-1(6H)-yl)-N-(2-fluorophenyl)acetamide]: the concentration for half-maximal inhibition (IC50) in assay [1] (Table 4C) was under 10 µM; in assay [2] (Table 5C), 10 to 100 µM.

As to `CCNC(=O)Cn1nc(-c2cnc(Nc3ccc(Cl)cc3)nc2)ccc1=O` [Compound I-1, 2-(3-(2-((4-chlorophenyl)amino)pyrimidin-5-yl)-6-oxopyridazin-1(6H)-yl)-N-ethylacetamide], the values for the half-maximal inhibitory concentration (IC50) in assay [1] (Table 4A) and in assay [2] (Table 5A) were under 10 µM and over 100 µM, respectively.

For the molecule `COc1ccc(-c2ccc(=O)n(CC(=O)NCc3ccc(Cl)cc3)n2)cc1` [IIIa-17, N-(4-chlorobenzyl)-2-(3-(4-methoxyphenyl)-6-oxopyridazin-1(6H)-yl)acetamide], the half-maximal inhibitory concentration (IC50) was under 10 µM in assay [1] (Table 4C) and over 100 µM in assay [2] (Table 5C).

Turning to `COc1ccc(-c2ccc(=O)n(CC(=O)NCc3ccco3)n2)cc1` [IIIb-37, N-(furan-2-ylmethyl)-2-(3-(4-methoxyphenyl)-6-oxopyridazin-1(6H)-yl)acetamide], the figures for the IC50 in assay [1] (Table 4C) and in assay [2] (Table 5C) were 10 to 100 µM and over 100 µM, respectively.

Consider `COc1ccc(-c2ccc(=O)n(CC(=O)NCc3cnn(C)c3)n2)cc1` [IIIa-32, 2-(3-(4-methoxyphenyl)-6-oxopyridazin-1(6H)-yl)-N-((1-methyl-1H-pyrazol-4-yl)methyl) acetamide], for which the IC50 in assay [1] (Table 4C) and in assay [2] (Table 5C) was over 100 µM in each case.

As to `CCNC(=O)Cn1nc(-c2ccc(OCCC(F)(F)F)nc2)ccc1=O` [Compound I-10, N-ethyl-2-(6-oxo-3-(6-(3,3,3-trifluoropropoxy)pyridin-3-yl)pyridazin-1(6H)-yl)acetamide], the IC50 in assay [1] (Table 4A) is 10 to 100 µM; in assay [2] (Table 5A) it was over 100 µM.

As to `CC(C)CNC(=O)Cn1nc(-c2ccc(OC(F)F)cc2)ccc1=O` [II-13, 2-(3-(4-(difluoromethoxy)phenyl)-6-oxopyridazin-1(6H)-yl)-N-isobutylacetamide], the values for the IC50 in assay [1] (Table 4B) and in assay [2] (Table 5B) were 10 to 100 µM and over 100 µM, respectively.

Regarding `COc1ccc(-c2ccc(=O)n(CC(=O)NCc3ccccc3OC)n2)cc1` [IIIb-21, N-(2-methoxybenzyl)-2-(3-(4-methoxyphenyl)-6-oxopyridazin-1(6H)-yl)acetamide], the values for the IC50 in assay [1] (Table 4C) and in assay [2] (Table 5C) were 10 to 100 µM and over 100 µM, respectively.

In the case of `COc1ccc(-c2ccc(=O)n(CC(=O)NCc3ccccc3C(F)(F)F)n2)cc1` [IIIa-11, 2-(3-(4-methoxyphenyl)-6-oxopyridazin-1(6H)-yl)-N-(2-(trifluoromethyl)benzyl)acetamide], the half-inhibitory concentration (IC50) in assay [1] (Table 4C) is under 10 µM; in assay [2] (Table 5C) it was over 100 µM.

On to `O=C(Cn1nc(-c2ccccc2)ccc1=O)NC1CC1` [IIIc-65, N-cyclopropyl-2-(6-oxo-3-phenylpyridazin-1(6H)-yl)acetamide], for which the IC50 in assay [1] (Table 4C) and in assay [2] (Table 5C) was over 100 µM throughout.

In the case of `COc1ccc(-c2ccc(=O)n(CC(=O)Nc3cccc4[nH]ccc34)n2)c(F)c1` [IIIb-2, 2-(3-(2-fluoro-4-methoxyphenyl)-6-oxopyridazin-1(6H)-yl)-N-(1H-indol-4-yl)acetamide], the IC50 is under 10 µM in assay [1] (Table 4C) and over 100 µM in assay [2] (Table 5C).

Regarding `COc1ccc(-c2ccc(=O)n(CC(=O)Nc3ncccc3C)n2)cc1` [IIIb-27, 2-(3-(4-methoxyphenyl)-6-oxopyridazin-1(6H)-yl)-N-(3-methylpyridin-2-yl)acetamide], the IC50 in assay [1] (Table 4C) was 10 to 100 µM; in assay [2] (Table 5C), over 100 µM.

`CCNC(=O)Cn1nc(-c2ccc(N3CC4(COC4)C3)nc2)ccc1=O` [Compound I-31, 2-(3-(6-(2-oxa-6-azaspiro[3.3]heptan-6-yl)pyridin-3-yl)-6-oxopyridazin-1(6H)-yl)-N-ethylacetamide]: the IC50 in assay [1] (Table 4A) and in assay [2] (Table 5A) was over 100 µM throughout.

As for `COc1ccc(-c2ccc(=O)n(CC(=O)NCCc3ccccc3)n2)cc1` [IIIa-5, 2-(3-(4-methoxyphenyl)-6-oxopyridazin-1(6H)-yl)-N-phenethylacetamide], the IC50 is under 10 µM in assay [1] (Table 4C) and over 100 µM in assay [2] (Table 5C).

Turning to `COc1ccc(-c2ccc(=O)n(CC(=O)Nc3ccc(C(C)C)cc3)n2)cc1` [IIIb-56, N-(4-isopropylphenyl)-2-(3-(4-methoxyphenyl)-6-oxopyridazin-1(6H)-yl)acetamide], the IC50 in assay [1] (Table 4C) and in assay [2] (Table 5C) was over 100 µM throughout.

On to `CCNC(=O)Cn1nc(-c2cnc(OCC(F)(F)F)nc2)ccc1=O` [Compound I-8, N-ethyl-2-(6-oxo-3-(2-(2,2,2-trifluoroethoxy)pyrimidin-5-yl)pyridazin-1(6H)-yl)acetamide], for which the IC50 in assay [1] (Table 4A) is under 10 µM; in assay [2] (Table 5A) it was over 100 µM.

With `O=C(Cn1nc(-c2ccc(OC(F)F)nc2)ccc1=O)N[C@H]1CC12CC2` [Compound I-17, (S)-2-(3-(6-(difluoromethoxy)pyridin-3-yl)-6-oxopyridazin-1(6H)-yl)-N-(spiro[2.2]pentan-1-yl)acetamide], the IC50 in assay [1] (Table 4A) is 10 to 100 µM; in assay [2] (Table 5A), over 100 µM.

`COc1ccc(-c2ccc(=O)n(CC(=O)NC3Cc4ccccc4C3)n2)cc1` [IIIb-8, N-(2,3-dihydro-1H-inden-2-yl)-2-(3-(4-methoxyphenyl)-6-oxopyridazin-1(6H)-yl)acetamide]: the figures for the half-maximal inhibitory concentration (IC50) in assay [1] (Table 4C) and in assay [2] (Table 5C) were under 10 µM and over 100 µM, respectively.

Regarding `O=C(Cn1nc(-c2ccc(OCC(F)(F)F)cc2)ccc1=O)NCc1ccc(CO)cc1` [II-24, N-(4-(hydroxymethyl)benzyl)-2-(6-oxo-3-(4-(2,2,2-trifluoroethoxy)phenyl)pyridazin-1(6H)-yl)acetamide], the IC50 in assay [1] (Table 4B) and in assay [2] (Table 5B) was over 100 µM each time.

As to `CCOc1ccc(-c2ccc(=O)n(CC(=O)NCc3ccccc3Cl)n2)cc1` [IIIa-1, N-(2-chlorobenzyl)-2-(3-(4-ethoxyphenyl)-6-oxopyridazin-1(6H)-yl)acetamide], the IC50 in assay [1] (Table 4C) is under 10 µM; in assay [2] (Table 5C), over 100 µM.

Take `CCNC(=O)Cn1nc(-c2ccc(N3CC(F)(F)C3)nc2)ccc1=O` [Compound I-6, 2-(3-(6-(3,3-difluoroazetidin-1-yl)pyridin-3-yl)-6-oxopyridazin-1(6H)-yl)-N-ethylacetamide]: the IC50 in assay [1] (Table 4A) is 10 to 100 µM; in assay [2] (Table 5A) it was over 100 µM.

As for `COc1ccc(-c2ccc(=O)n(CC(=O)NCc3ccccn3)n2)cc1` [IIIa-30, 2-(3-(4-methoxyphenyl)-6-oxopyridazin-1(6H)-yl)-N-(pyridin-2-ylmethyl) acetamide], the IC50 in assay [1] (Table 4C) and in assay [2] (Table 5C) was over 100 µM throughout.

`COc1ccc(-c2ccc(=O)n(CC(=O)NC(C)C)n2)cc1` [IIIb-18, N-isopropyl-2-(3-(4-methoxyphenyl)-6-oxopyridazin-1(6H)-yl)acetamide]: the half-inhibitory concentration (IC50) in assay [1] (Table 4C) is 10 to 100 µM; in assay [2] (Table 5C), over 100 µM.

As to `COc1ccc(-c2ccc(=O)n(CC(=O)NCc3ccccc3C)n2)cc1` [IIIa-16, 2-(3-(4-methoxyphenyl)-6-oxopyridazin-1(6H)-yl)-N-(2-methylbenzyl) acetamide], the IC50 in assay [1] (Table 4C) was under 10 µM; in assay [2] (Table 5C), over 100 µM.

Turning to `O=C(Cn1nc(-c2ccc(OC(F)F)cc2)ccc1=O)NCC1CCC1` [II-18, N-(cyclobutylmethyl)-2-(3-(4-(difluoromethoxy)phenyl)-6-oxopyridazin-1(6H)-yl)acetamide], the IC50 was 10 to 100 µM in assay [1] (Table 4B) and over 100 µM in assay [2] (Table 5B).

Turning to `COc1ccc(-c2ccc(=O)n(CC(=O)NCc3cc(F)ccc3Cl)n2)cc1` [IIIa-7, N-(2-chloro-5-fluorobenzyl)-2-(3-(4-methoxyphenyl)-6-oxopyridazin-1(6H)-yl)acetamide], the IC50 in assay [1] (Table 4C) was under 10 µM; in assay [2] (Table 5C), over 100 µM.

For the molecule `O=C(Cn1nc(-c2ccc(Cl)cc2)ccc1=O)Nc1ccc2[nH]ccc2c1` [IIIc-22, 2-(3-(4-chlorophenyl)-6-oxopyridazin-1(6H)-yl)-N-(1H-indol-5-yl)acetamide], the IC50 in assay [1] (Table 4C) was under 10 µM; in assay [2] (Table 5C), over 100 µM.

On to `CCNC(=O)Cn1nc(-c2cnc(OCC3CC(F)(F)C3)nc2)ccc1=O` [Compound I-77, 2-(3-(2-((3,3-difluorocyclobutyl)methoxy)pyrimidin-5-yl)-6-oxopyridazin-1(6H)-yl)-N-ethylacetamide], for which the IC50 in assay [1] (Table 4A) is 10 to 100 µM; in assay [2] (Table 5A), over 100 µM.
